Results taken from patent publication US20240408169A1 (priority 2023, published 2024).
pIC50: −log10 of the molar value. Like-named read-outs stand apart in the source and are kept apart here. *1 amine or outer side, *2 acyl side, *3 side chain or, on linkers, in order; H or OH if unused. Where a SMILES comes first, the peptide text is derived from it. Bridges are numbered along the chain shown (N, C = ends). [ ]: non-standard residue; d: D form. The star is where a group is joined. X179 = CN([C@@H](Cc1cc(Cl)ccc1-c1ccc(N2CCOCC2)c(C#N)c1)C(=O)[*:2])[*:1]; X181 = CN([C@@H](Cc1cc(Cl)ccc1C1=CCN(C(=O)C2CC2)CC1)C(=O)[*:2])[*:1]; X200 = CN([C@@H](Cc1cc(F)ccc1C1CCN(C(=O)C2CC2)CC1)C(=O)[*:2])[*:1]; X209 = CN([C@@H](Cc1cc(Cl)ccc1-c1cnc2nn(C)cc2c1)C(=O)[*:2])[*:1]; NMehhhLys(Me) = CN([C@@H](CCCCCCCN(C)[*:3])C(=O)[*:2])[*:1]; NMe3Pal(2-OiPr,5-Cl) = CN[C@@H](Cc1cc(Cl)cnc1OC(C)C)C(=O)O; X174 = CN([C@@H](Cc1cc(Cl)cnc1-c1cnn(C)c1)C(=O)[*:2])[*:1]; NMe3Pal(2-OcPr,5-F) = CN[C@@H](Cc1cc(F)cnc1OC1CC1)C(=O)O; NMe(hhhLys) = CN([C@@H](CCCCCCCN[*:3])C(=O)[*:2])[*:1]; cBuCO(3,3-F2-1-CF3) = O=C(C1(C(F)(F)F)CC(F)(F)C1)*; Pro(trans-4-F) = O=C(O)[C@@H]1C[C@@H](F)CN1; Gly(cPr) = N[C@H](C(=O)O)C1CC1

What was measured:
CyclinA2/CDK2 = target: T1, CyclinA2/CDK2 (Homo sapiens, UniProt P20248); assay: Fluorescence Polarization (FP) competitive binding assay, Cyclin A2/Cdk2;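 also: plates equilibrated two hours at room temperature before polarization reading, IC50 fitted from eight-concentration compound titration curves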
T1 construct: purchased CRELUX Protein Services

CyclinB1/CDK1 = target: T2, CyclinB1/CDK1 (Homo sapiens, UniProt P14635); assay: Fluorescence Polarization (FP) competitive binding assay, Cyclin B1/Cdk1;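 also: fluorescence polarization read after equilibration at room temperature, with IC50 taken from serially diluted dose-response curves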
T2 construct: purchased Eurofins, discovery 14-450

CyclinE1/CDK2 = target: T3, CyclinE1/CDK2 (Homo sapiens, UniProt P24864); assay: Fluorescence Polarization (FP) competitive binding assay, Cyclin E1/Cdk2;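 also: readings taken after two-hour equilibration at room temperature in HEPES buffer with NaCl, DTT, NP-40 and BSA, IC50 fitted from eight-concentration serial dilution series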
T3 construct: purchased Eurofins, discovery 14-475

NCI-H1048 cells = assay: MTT proliferation assay, NCI-H1048; type: cell-based; conditions: 5 days compound exposure, 1:3 serial dilution starting at 10 μM;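 also: Dose-response in 96-well plates over 8 or 10 concentration points, with exposure spanning 3-4 cell doublings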
OVCAR3 cells = assay: MTT proliferation assay, OVCAR3; type: cell-based; conditions: 5 days compound exposure, 1:3 serial dilution starting at 10 μM;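 also: compound given as an 8- or 10-point series, one day after plating, with exposure covering roughly 3-4 cell doublings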
[1] = 8 nM Cyclin A2/Cdk2, 2 nM FAM probe; average of 2-3 independent experiments; read-out: Cyclin A FP IC50
[2] = 10 nM Cyclin B1/Cdk1, 2 nM FAM probe; average of 2-3 independent experiments; read-out: Cyclin B FP IC50
[3] = 10 nM Cyclin E1/Cdk2, 2 nM FAM probe, average of 2-3 independent experiments, read-out: Cyclin E FP IC50
[4] = read-out: Cyclin A FP IC50; 8 nM Cyclin A2/Cdk2, 2 nM FAM probe; average of 2-3 independent experiments
[5] = read-out: Cyclin B FP IC50; 10 nM Cyclin B1/Cdk1, 2 nM FAM probe; average of 2-3 independent experiments

Compound: CC(C)C[C@@H]1NC(=O)[C@@H](N(C)C(=O)[C@@H](NC(=O)[C@@H]2C[C@@H](F)CN2C(=O)C2(C(F)(F)F)CC(F)(F)C2)C2CC2)CCCCCCCNC(=O)[C@H](Cc2cc(Cl)cnc2OC(C)C)N(C)C1=O [Example 131] ({cBuCO(3,3-F2-1-CF3)}-[Pro(trans-4-F)][Gly(cPr)][NMe(hhhLys)]L[NMe3Pal(2-OiPr,5-Cl)]; lactam 3-C)
- pIC50 (CyclinA2/CDK2; [1]): 7.52
- pIC50 (CyclinB1/CDK1; [2]): 7.70
- pIC50 (CyclinE1/CDK2; [3]): 6.62
- GI50 (NCI-H1048 cells): 290 nM
- GI50 (OVCAR3 cells): 400 nM

Compound: CC(C)C[C@@H]1NC(=O)[C@@H](N(C)C(=O)[C@@H](NC(=O)[C@@H]2C[C@@H](F)CN2C(=O)C2(C(F)(F)F)CC(F)(F)C2)C2CC2)CCCCCCCN(C)C(=O)[C@H](Cc2cc(Cl)ccc2-c2cnc3nn(C)cc3c2)N(C)C1=O [Example 249] ({cBuCO(3,3-F2-1-CF3)}-[Pro(trans-4-F)][Gly(cPr)][NMehhhLys(Me)]L[X209]; lactam 3-C)
- pIC50 (CyclinA2/CDK2; [4]): 7.70
- pIC50 (CyclinB1/CDK1; [5]): 7.70
- pIC50 (CyclinE1/CDK2): 6.23
- GI50 (NCI-H1048 cells): 10 nM
- GI50 (OVCAR3 cells): 10 nM

Compound: CC(C)C[C@@H]1NC(=O)[C@@H](N(C)C(=O)[C@@H](NC(=O)[C@@H]2C[C@@H](F)CN2C(=O)C2(C(F)(F)F)CC(F)(F)C2)C2CC2)CCCCCCCN(C)C(=O)[C@H](Cc2cc(Cl)ccc2-c2ccc(N3CCOCC3)c(C#N)c2)N(C)C1=O [Example 379] ({cBuCO(3,3-F2-1-CF3)}-[Pro(trans-4-F)][Gly(cPr)][NMehhhLys(Me)]L[X179]; lactam 3-C)
- pIC50 (CyclinA2/CDK2; [1]): 7.52
- pIC50 (CyclinB1/CDK1; [2]): 7.70
- pIC50 (CyclinE1/CDK2; [3]): 5.56
- GI50 (NCI-H1048 cells): 30 nM
- GI50 (OVCAR3 cells): 20 nM

Compound: CC(C)C[C@@H]1NC(=O)[C@@H](N(C)C(=O)[C@@H](NC(=O)[C@@H]2C[C@@H](F)CN2C(=O)C2(C(F)(F)F)CC(F)(F)C2)C2CC2)CCCCCCCNC(=O)[C@H](Cc2cc(F)cnc2OC2CC2)N(C)C1=O [Example 127] ({cBuCO(3,3-F2-1-CF3)}-[Pro(trans-4-F)][Gly(cPr)][NMe(hhhLys)]L[NMe3Pal(2-OcPr,5-F)]; lactam 3-C)
- pIC50 (CyclinA2/CDK2; [1]): 7.10
- pIC50 (CyclinB1/CDK1; [2]): 7.70
- pIC50 (CyclinE1/CDK2; [3]): 6.64
- GI50 (NCI-H1048 cells): 30 nM
- GI50 (OVCAR3 cells): 30 nM

Compound: CC(C)C[C@@H]1NC(=O)[C@@H](N(C)C(=O)[C@@H](NC(=O)[C@@H]2C[C@@H](F)CN2C(=O)C2(C(F)(F)F)CC(F)(F)C2)C2CC2)CCCCCCCN(C)C(=O)[C@H](Cc2cc(F)ccc2C2CCN(C(=O)C3CC3)CC2)N(C)C1=O [Example 101] ({cBuCO(3,3-F2-1-CF3)}-[Pro(trans-4-F)][Gly(cPr)][NMehhhLys(Me)]L[X200]; lactam 3-C)
- pIC50 (CyclinA2/CDK2; [1]): 7.52
- pIC50 (CyclinB1/CDK1; [2]): 7.70
- pIC50 (CyclinE1/CDK2; [3]): 6.33
- GI50 (NCI-H1048 cells): 20 nM
- GI50 (OVCAR3 cells): 30 nM

Compound: CC(C)C[C@@H]1NC(=O)[C@@H](N(C)C(=O)[C@@H](NC(=O)[C@@H]2C[C@@H](F)CN2C(=O)C2(C(F)(F)F)CC(F)(F)C2)C2CC2)CCCCCCCNC(=O)[C@H](Cc2cc(Cl)ccc2C2=CCN(C(=O)C3CC3)CC2)N(C)C1=O [Example 97] ({cBuCO(3,3-F2-1-CF3)}-[Pro(trans-4-F)][Gly(cPr)][NMe(hhhLys)]L[X181]; lactam 3-C)
- pIC50 (CyclinA2/CDK2; [1]): 7.70
- pIC50 (CyclinB1/CDK1; [2]): 7.70
- pIC50 (CyclinE1/CDK2; [3]): 5.84
- GI50 (NCI-H1048 cells): 20 nM
- GI50 (OVCAR3 cells): 30 nM

Compound: CC(C)C[C@@H]1NC(=O)[C@@H](N(C)C(=O)[C@@H](NC(=O)[C@@H]2C[C@@H](F)CN2C(=O)C2(C(F)(F)F)CC(F)(F)C2)C2CC2)CCCCCCCN(C)C(=O)[C@H](Cc2cc(Cl)cnc2-c2cnn(C)c2)N(C)C1=O [Example 246] ({cBuCO(3,3-F2-1-CF3)}-[Pro(trans-4-F)][Gly(cPr)][NMehhhLys(Me)]L[X174]; lactam 3-C)
- pIC50 (CyclinA2/CDK2; [4]): 7.70
- pIC50 (CyclinB1/CDK1; [5]): 7.70
- pIC50 (CyclinE1/CDK2): 6.19
- GI50 (NCI-H1048 cells): 30 nM
- GI50 (OVCAR3 cells): 10 nM

Compound: CC(C)C[C@@H]1NC(=O)[C@@H](N(C)C(=O)[C@@H](NC(=O)[C@@H]2C[C@@H](F)CN2C(=O)C2(C(F)(F)F)CC(F)(F)C2)C2CC2)CC=CCCCCNC(=O)[C@H](Cc2cc(Cl)ccc2C2=CC[C@H](O)CC2)N(C)C1=O [Example 24]
- pIC50 (CyclinA2/CDK2; [1]): 7.22
- pIC50 (CyclinB1/CDK1; [2]): 7.70
- pIC50 (CyclinE1/CDK2; [3]): 5.80
- GI50 (NCI-H1048 cells): 90 nM
- GI50 (OVCAR3 cells): 170 nM

Compound: CC(C)C[C@@H]1NC(=O)[C@@H](NC(=O)[C@@H](NC(=O)[C@@H]2C[C@@H](F)CN2C(=O)C2(C(F)(F)F)CC2)C2CC2)CC=CCCCCN(C)C(=O)[C@H](Cc2cc(Cl)ccc2Cl)N(C)C1=O [Example 11]
- pIC50 (CyclinA2/CDK2; [1]): 6.77
- pIC50 (CyclinB1/CDK1; [2]): 7.70
- pIC50 (CyclinE1/CDK2; [3]): 7.00
- GI50 (NCI-H1048 cells): 80 nM
- GI50 (OVCAR3 cells): 210 nM
